Among the data in ChEMBL document CHEMBL1833882, “Preparation and antibacterial evaluation of decarboxylated fluoroquinolones” (2011) are MIC values, retold here.

The structures appear in SMILES notation. Values after ≈ are worked out from the molar mass of the structure shown.

What all share (format): functional
For assay [1], the system named is Enterococcus faecalis. Put plainly: Antibacterial activity against vancomycin-resistant Enterococcus faecalis ATCC 51575 after 18 hrs by broth dilution method. The settings on record: ATCC 51575, 18 h. (Dilution methods test growth across graded concentrations, often in twofold steps.)
The subject of assay [2] is Klebsiella pneumoniae. The assay is described as follows: Antibacterial activity against Klebsiella pneumoniae ATCC 13882 after 18 hrs by broth dilution method. Conditions: ATCC 13882, 18 h.
The subject of assay [3] is Escherichia coli. The assay is described as follows: Antibacterial activity against TolC deficient Escherichia coli 701 after 18 hrs by broth dilution method. Conditions: Escherichia coli, 701, 18 h.
Assay [4] relates to Bacillus anthracis. The assay is described as follows: Antibacterial activity against Bacillus anthracis Sterne after 18 hrs by broth dilution method.
Assay [5] relates to Bacillus subtilis. Put plainly: Antibacterial activity against Bacillus subtilis BD54 after 18 hrs by broth dilution method. The settings on record: BD54, 18 h.
In assay [6] the test system is Escherichia coli. The assay is described as follows: Antibacterial activity against Escherichia coli ATCC 29425 after 18 hrs by broth dilution method. The settings on record: ATCC 29425, 18 h.
Assay [7] relates to Staphylococcus aureus. Put plainly: Antibacterial activity against Staphylococcus aureus ATCC 25923 after 18 hrs by broth dilution method. The settings on record: ATCC 25923, 18 h.
For assay [8], the system named is Pseudomonas aeruginosa. Put plainly: Antibacterial activity against Pseudomonas aeruginosa PAO1 harboring oprM deltamexAB after 18 hrs by broth dilution method. Conditions: PAO1, 18 h.
The test system of assay [9] is Stenotrophomonas maltophilia. Put plainly: Antibacterial activity against Stenotrophomonas maltophilia ATCC 13637 after 18 hrs by broth dilution method. The settings on record: ATCC 13637, 18 h.
The subject of assay [10] is Burkholderia cepacia. Put plainly: Antibacterial activity against Burkholderia cepacia ATCC 39277 after 18 hrs by broth dilution method. The settings on record: ATCC 39277, 18 h.
The test system of assay [11] is Pseudomonas aeruginosa. Put plainly: Antibacterial activity against Pseudomonas aeruginosa PAO1 ATCC BAA-47 after 18 hrs by broth dilution method. Conditions: PAO1 ATCC BAA-47, 18 h.
The subject of assay [12] is Burkholderia cepacia. The assay is described as follows: Antibacterial activity against Burkholderia cepacia ATCC 55792 after 18 hrs by broth dilution method. Conditions: ATCC 55792, 18 h.
For assay [13], the system named is Acinetobacter baumannii. The assay is described as follows: Antibacterial activity against Acinetobacter baumannii ATCC 19606 after 18 hrs by broth dilution method. The settings on record: ATCC 19606 = CIP 70.34 = JCM 6841, 18 h.
Assay [14] concerns Klebsiella pneumoniae. The assay is described as follows: Antibacterial activity against Klebsiella pneumoniae ATCC 700603 after 18 hrs by broth dilution method. The settings on record: ATCC 700603, 18 h.
In assay [15] the test system is Enterococcus faecalis. Put plainly: Antibacterial activity against Enterococcus faecalis ATCC 29212 after 18 hrs by broth dilution method. Conditions: ATCC 29212, 18 h.
Assay [16] deals with Staphylococcus aureus. Put plainly: Antibacterial activity against methicillin-resistant Staphylococcus aureus 1094 after 18 hrs by broth dilution method. Conditions: Staphylococcus aureus, 1094, 18 h.
Assay [17] concerns Escherichia coli. Put plainly: Antibacterial activity against Escherichia coli 700 expressing TolC after 18 hrs by broth dilution method. The settings on record: Escherichia coli, 700, 18 h.
In assay [18] the test system is Staphylococcus aureus. Put plainly: Antibacterial activity against Staphylococcus aureus ATCC 25923 after 16 to 18 hrs by agar dilution method. A general note: In agar dilution, organisms are placed on agar that contains the substance at set levels.
For assay [19], the system named is Enterococcus faecalis. Put plainly: Antibacterial activity against Enterococcus faecalis ATCC 29212 after 16 to 18 hrs by agar dilution method.
Assay [20] relates to Escherichia coli. The assay is described as follows: Antibacterial activity against Escherichia coli ATCC 29425 after 16 to 18 hrs by agar dilution method.

A word on the MIC: it is the lowest concentration found to suppress growth. High values mean a less susceptible organism, low ones a more susceptible organism. Turning to `CCn1cc(C(=O)O)c(=O)c2cc(F)c(N3CCNCC3)cc21` [NORFLOXACIN], the MIC turned out to be 2.5 µg/mL (≈ 7.83 µM) in [1]; 0.117 µg/mL (≈ 0.366 µM) in assay [2]; 0.039 µg/mL (≈ 0.122 µM) in [3]; 0.313 µg/mL (≈ 0.98 µM) in [4]; 0.625 µg/mL (≈ 1.96 µM) in [5]; 0.12 µg/mL (≈ 0.376 µM) in assay [6]. The minimum inhibitory concentration (MIC) in assay [7] was found to be 1.25 µg/mL (≈ 3.91 µM); in assay [8], 0.039 µg/mL (≈ 0.122 µM); in assay [9], 1.25 µg/mL (≈ 3.91 µM); in assay [10], 1.25 µg/mL (≈ 3.91 µM); in assay [11], 1.25 µg/mL (≈ 3.91 µM); in assay [12] it was 2.5 µg/mL (≈ 7.83 µM). Further, the MIC in assay [13] amounted to 10 µg/mL (≈ 31.3 µM); in [14], 0.938 µg/mL (≈ 2.94 µM); in assay [15], 2.5 µg/mL (≈ 7.83 µM); in assay [16] it was 40 µg/mL (≈ 125 µM); in assay [17], 0.059 µg/mL (≈ 0.185 µM); in assay [18], 2 µg/mL (≈ 6.26 µM). Further, the minimum inhibitory concentration (MIC) was found to be 2 µg/mL (≈ 6.26 µM) in [19] and 0.01 µg/mL (≈ 0.0313 µM) in assay [20].
As to `CC1CN(c2c(F)cc3c(=O)c(C(=O)O)cn(C4CC4)c3c2F)CCN1` (stereo not drawn), the MIC in [1] was 0.625 µg/mL (≈ 1.72 µM); in [2], ≤ 0.02 µg/mL; in assay [3], ≤ 0.02 µg/mL; in assay [4], 0.078 µg/mL (≈ 0.215 µM); in assay [5], 0.078 µg/mL (≈ 0.215 µM); in [7], 0.235 µg/mL (≈ 0.647 µM). The MIC worked out at 0.039 µg/mL (≈ 0.107 µM) in assay [8]; 0.039 µg/mL (≈ 0.107 µM) in assay [9]; 0.078 µg/mL (≈ 0.215 µM) in [10]; 1.25 µg/mL (≈ 3.44 µM) in assay [11]; 0.235 µg/mL (≈ 0.647 µM) in assay [12]; 0.313 µg/mL (≈ 0.861 µM) in [13]. In addition, the MIC in assay [14] is 0.313 µg/mL (≈ 0.861 µM); in assay [15], 0.625 µg/mL (≈ 1.72 µM); in assay [16], 10 µg/mL (≈ 27.5 µM); in assay [17], ≤ 0.02 µg/mL.
For the molecule `CCn1ccc(=O)c2cc(F)c(N3CCNCC3)cc21`, the MIC in assay [1] was > 80 µg/mL; in assay [2], 40 µg/mL (≈ 145 µM); in [3], 5 µg/mL (≈ 18.2 µM); in [4], 80 µg/mL (≈ 291 µM); in [5], 80 µg/mL (≈ 291 µM); in assay [6], 40 µg/mL (≈ 145 µM). For the same molecule, the MIC is > 80 µg/mL in assay [7]; 40 µg/mL (≈ 145 µM) in assay [8]; > 80 µg/mL in assay [9]; > 80 µg/mL in assay [10]; > 80 µg/mL in assay [11]; > 80 µg/mL in assay [12]. Besides, the minimum inhibitory concentration (MIC) in assay [13] was > 80 µg/mL; in assay [14], > 80 µg/mL; in [15], > 80 µg/mL; in [16] it was > 80 µg/mL; in assay [17], 40 µg/mL (≈ 145 µM); in [18] it was > 64 µg/mL. The minimum inhibitory concentration (MIC) in assay [19] stood at 32 µg/mL (≈ 116 µM); in [20] it was 64 µg/mL (≈ 232 µM).
Turning to `CCN1CCN(c2cc3c(cc2F)c(=O)c(C(=O)O)cn3C2CC2)CC1` [ENROFLOXACIN], the MIC is 0.625 µg/mL (≈ 1.74 µM) in [1]; 0.098 µg/mL (≈ 0.273 µM) in assay [2]; ≤ 0.01 µg/mL in assay [3]; 0.078 µg/mL (≈ 0.217 µM) in assay [4]; 0.078 µg/mL (≈ 0.217 µM) in assay [5]; 0.05 µg/mL (≈ 0.139 µM) in assay [6]. Also, the MIC in assay [7] was 0.156 µg/mL (≈ 0.434 µM); in assay [8], 0.078 µg/mL (≈ 0.217 µM); in assay [9], 0.098 µg/mL (≈ 0.273 µM); in [10], 0.098 µg/mL (≈ 0.273 µM); in assay [11] it was 4.4 µg/mL (≈ 12.2 µM); in assay [12], 0.625 µg/mL (≈ 1.74 µM). Also, the minimal inhibitory concentration (MIC) turned out to be 0.235 µg/mL (≈ 0.654 µM) in assay [13]; 0.625 µg/mL (≈ 1.74 µM) in assay [14]; 0.625 µg/mL (≈ 1.74 µM) in [15]; 5 µg/mL (≈ 13.9 µM) in assay [16]; 0.049 µg/mL (≈ 0.136 µM) in assay [17]; 0.13 µg/mL (≈ 0.362 µM) in assay [18]. In addition, the values for the minimum inhibitory concentration (MIC) in [19] and in assay [20] were 0.13 µg/mL (≈ 0.362 µM) and < 0.06 µg/mL, respectively.
Consider `O=C(O)c1cn(C2CC2)c2cc(N3CCNCC3)c(F)cc2c1=O` [CIPROFLOXACIN], for which the minimal inhibitory concentration (MIC) in assay [1] was 0.625 µg/mL (≈ 1.89 µM); in assay [2], 0.039 µg/mL (≈ 0.118 µM); in assay [5] it was 0.156 µg/mL (≈ 0.471 µM); in assay [6] it was < 0.02 µg/mL; in [7] it was 0.625 µg/mL (≈ 1.89 µM); in assay [8] it was 0.02 µg/mL (≈ 0.0604 µM). For the same molecule, the minimum inhibitory concentration (MIC) in [9] was 0.156 µg/mL (≈ 0.471 µM); in [10], 0.078 µg/mL (≈ 0.235 µM); in assay [11] it was 0.313 µg/mL (≈ 0.945 µM); in assay [12], 0.625 µg/mL (≈ 1.89 µM); in assay [13], 1.25 µg/mL (≈ 3.77 µM); in assay [14], 0.313 µg/mL (≈ 0.945 µM). The MIC in assay [15] is 1.25 µg/mL (≈ 3.77 µM); in [16], 20 µg/mL (≈ 60.4 µM); in assay [18], 0.5 µg/mL (≈ 1.51 µM); in assay [19], 0.5 µg/mL (≈ 1.51 µM); in assay [20] it was < 0.06 µg/mL.
